Values of other authors in US20230372216A1, “METHOD FOR DYEING KERATINOUS MATERIAL, COMPRISING THE USE OF AN ORGANOSILICON COMPOUND, A DYEING COMPOUND, A SEALING REAGENT AND A PRE-TREATMENT AGENT” (Henkel AG & Co. KGaA, priority 2020, published 2023).

Settings: 25° C.

Compound	solubility in water	solubility in water (in words)
CCN(Cc1cccc(S(=O)(=O)[O-])c1)c1ccc(C(=C2C=CC(=[N+](CC)Cc3cccc(S(=O)(=O)[O-])c3)C=C2)c2ccccc2S(=O)(=O)[O-])cc1.[Na+].[Na+] [Acid Blue 9]	more than 20 wt. %	–
O=S(=O)([O-])c1ccc(N=Nc2c(O)ccc3ccccc23)cc1.[Na+] [Acid Orange 7, sodium salt of 4-[(2-hydroxy-1-naphthyl)azo]benzene sulphonate]	more than 7 g/L	–
Nc1cc(S(=O)(=O)[O-])cc2cc(S(=O)(=O)[O-])c(N=Nc3ccccc3)c(O)c12.[Na+].[Na+] [Acid Red 33, disodium salt of 5-amino-4-hydroxy-3-(phenylazo)-naphthalene-2,7-disulphonate]	2.5 mg/mL	–
O=C([O-])c1c(Cl)c(Cl)c(Cl)c(Cl)c1-c1c2c(Br)cc(=O)c(Br)c-2oc2c(Br)c(O)cc(Br)c12.O=C([O-])c1c(Cl)c(Cl)c(Cl)c(Cl)c1-c1c2c(Br)cc(=O)c(Br)c-2oc2c(Br)c(O)cc(Br)c12.[Na+].[Na+] [Acid Red 92, disodium salt of 3,4,5,6-tetrachloro-2-(1,4,5,8-tetrabromo-6-hydroxy-3-oxoxanthen-9-yl)benzoic acid]	greater than 10 g/L	–

The next lines start with the values.

solubility in water	solubility in water (in words)	Compound
–	highly soluble in water	O=C([O-])C1=NN(c2ccc(S(=O)(=O)[O-])cc2)C(=O)C1N=Nc1ccc(S(=O)(=O)[O-])cc1.[Na+].[Na+].[Na+] (stereo not drawn) [Acid Yellow 23, trisodium salt of 4,5-dihydro-5-oxo-1-(4-sulfophenyl)-4-((4-sulfophenyl)azo)-1H-pyrazole-3-carboxylic acid]
20 mg/mL	–	sodium salts of mono- and disulfonic acids of 2-(2-quinolyl)-1H-indene-1,3(2H)-dione [Acid Yellow 3]
